Results on 18 compounds are retold here after PMC6556873, “Rapid Covalent-Probe Discovery by Electrophile-Fragment Screening” (Journal of the American Chemical Society, 2019).

Like-named read-outs stand apart in the source and are kept apart here.

For one data set, the target named is T1, BSA (Bos taurus, UniProt P02769).
T1 construct: gene ALB
Also noted: Intact protein LC/MS covalent labelling, fragments in pools of five, 200 uM each, 4 °C. Particulars: 24 h, 4 °C, pool of five; 200 µM; covalent.

For a further data set, the target named is T2, NNMT (hNNMT) (Homo sapiens, UniProt P40261).
T2 construct: wild type, N-terminal His6 tag kept (no cleavage described), E. coli, construct 31248 Da
T2 sequence (P40261 1-264): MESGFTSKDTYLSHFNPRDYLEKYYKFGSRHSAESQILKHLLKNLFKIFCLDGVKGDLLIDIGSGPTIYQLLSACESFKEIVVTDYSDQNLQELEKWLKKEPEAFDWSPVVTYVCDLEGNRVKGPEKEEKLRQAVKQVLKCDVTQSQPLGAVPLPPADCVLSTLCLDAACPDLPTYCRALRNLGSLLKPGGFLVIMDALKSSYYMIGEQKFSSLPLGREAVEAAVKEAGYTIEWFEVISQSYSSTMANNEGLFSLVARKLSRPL
Also noted: Intact protein LC/MS covalent labelling, fragments in pools of five, 200 uM each, 4 °C. Particulars: 24 h, 4 °C, pool of five; 200 µM; covalent.

The target of another data set is T3, NUDT7 (Homo sapiens, UniProt P0C024).
T3 construct: residues 14-235, E. coli, pNIC28-Bsa4, N-terminal His6 tag removed by TEV, construct 26672 Da
More on the design: Intact protein LC/MS covalent labelling, fragments in pools of five, 200 uM each, 4 °C. Particulars: 24 h, 4 °C, pool of five; 200 µM; covalent.

A further data set has as its target T4, OTUB2 (OTUB2A) (Homo sapiens, UniProt Q96DC9).
T4 construct: full length residues 1-234, E. coli BL21(DE3)-R3, His tag removed by TEV, construct 27312 Da
T4 sequence (Q96DC9 1-234): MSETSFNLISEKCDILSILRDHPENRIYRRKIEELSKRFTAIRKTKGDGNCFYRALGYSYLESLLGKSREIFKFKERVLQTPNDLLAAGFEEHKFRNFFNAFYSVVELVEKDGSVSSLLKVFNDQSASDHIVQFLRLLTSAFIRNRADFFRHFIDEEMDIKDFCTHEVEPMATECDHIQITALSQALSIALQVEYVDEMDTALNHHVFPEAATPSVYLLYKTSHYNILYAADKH
Also noted: Intact protein LC/MS covalent labelling, fragments in pools of five, 200 uM each, 4 °C. Particulars: 24 h, 4 °C, pool of five; 200 µM; covalent.

The target of another data set is T5, PCAF (Homo sapiens, UniProt Q92831).
T5 construct: gene KAT2B
Also noted: Intact protein LC/MS covalent labelling, fragments in pools of five, 200 uM each, 4 °C. Particulars: 24 h, 4 °C, pool of five; 200 µM; covalent.

A short description of data set [1]: in vitro. More on the design: species or system CCD841, HEK293. Particulars: human, hb2 cells, read-out: HB-2 Cells Viability (%).
A short description of data set [2]: in vitro. Particulars: human, ccd841 cells. Also noted: species or system HB2, HEK293.
The nature of data set [3]: in vitro. Particulars: human, hek293 cells. Also noted: species or system HB2, CCD841.

T5 sequence (Q92831 whole entry): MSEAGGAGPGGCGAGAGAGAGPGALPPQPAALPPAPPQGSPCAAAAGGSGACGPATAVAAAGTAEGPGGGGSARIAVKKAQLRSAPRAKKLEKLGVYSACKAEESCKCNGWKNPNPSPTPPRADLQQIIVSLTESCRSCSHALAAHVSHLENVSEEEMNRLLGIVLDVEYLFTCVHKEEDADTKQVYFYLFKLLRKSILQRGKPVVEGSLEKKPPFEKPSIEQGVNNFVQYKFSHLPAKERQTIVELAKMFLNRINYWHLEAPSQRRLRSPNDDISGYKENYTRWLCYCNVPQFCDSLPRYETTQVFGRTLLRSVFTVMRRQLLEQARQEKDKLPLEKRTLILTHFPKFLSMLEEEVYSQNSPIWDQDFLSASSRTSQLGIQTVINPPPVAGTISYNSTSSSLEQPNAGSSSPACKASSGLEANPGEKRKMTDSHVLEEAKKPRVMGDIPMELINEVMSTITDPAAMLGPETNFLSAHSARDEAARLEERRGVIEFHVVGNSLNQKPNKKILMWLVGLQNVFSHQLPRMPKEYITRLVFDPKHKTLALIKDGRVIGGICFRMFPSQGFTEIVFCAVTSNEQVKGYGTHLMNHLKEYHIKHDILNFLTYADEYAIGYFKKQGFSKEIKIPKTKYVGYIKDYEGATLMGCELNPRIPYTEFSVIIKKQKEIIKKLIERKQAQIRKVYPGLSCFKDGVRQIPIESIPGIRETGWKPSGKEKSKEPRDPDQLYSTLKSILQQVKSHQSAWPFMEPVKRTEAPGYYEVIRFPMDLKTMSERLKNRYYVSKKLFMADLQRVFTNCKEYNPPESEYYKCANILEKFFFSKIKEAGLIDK
T1 sequence (P02769 whole entry): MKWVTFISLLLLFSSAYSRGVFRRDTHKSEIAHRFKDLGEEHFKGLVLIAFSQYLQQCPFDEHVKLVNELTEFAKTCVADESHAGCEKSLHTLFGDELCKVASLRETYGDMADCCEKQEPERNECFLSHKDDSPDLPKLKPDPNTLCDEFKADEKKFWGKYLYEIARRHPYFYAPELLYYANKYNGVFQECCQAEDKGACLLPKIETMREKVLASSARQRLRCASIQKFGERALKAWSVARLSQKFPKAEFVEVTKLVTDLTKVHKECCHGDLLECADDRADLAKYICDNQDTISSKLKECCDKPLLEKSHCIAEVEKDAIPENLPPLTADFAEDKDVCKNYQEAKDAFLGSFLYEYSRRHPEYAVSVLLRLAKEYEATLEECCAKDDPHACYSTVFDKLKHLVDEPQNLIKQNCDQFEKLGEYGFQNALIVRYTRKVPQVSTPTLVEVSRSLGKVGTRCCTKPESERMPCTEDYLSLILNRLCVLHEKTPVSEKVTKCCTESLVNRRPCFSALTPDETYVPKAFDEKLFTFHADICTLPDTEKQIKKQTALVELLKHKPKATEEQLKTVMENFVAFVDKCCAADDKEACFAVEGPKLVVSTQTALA
T3 sequence (P0C024 14-235): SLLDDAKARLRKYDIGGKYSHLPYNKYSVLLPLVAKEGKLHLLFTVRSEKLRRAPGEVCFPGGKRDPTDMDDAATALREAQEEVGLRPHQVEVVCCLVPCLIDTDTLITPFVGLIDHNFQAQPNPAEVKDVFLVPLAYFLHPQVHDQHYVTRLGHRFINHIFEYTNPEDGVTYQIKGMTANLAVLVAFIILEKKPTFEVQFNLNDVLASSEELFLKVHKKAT

As a reminder, the viability is a read-out of living cells in per cent, often relative to untreated cells. With `CN(CC1CC1)C(=O)CCl` [PCM-0102714], the BSA on BSA was determined as 0. Further, the NNMT at NNMT (hNNMT) worked out at 0. The NUDT7 on NUDT7 was 0. For the same compound, the OTUB2 at OTUB2 (OTUB2A) is listed as 0. In addition, the PCAF on PCAF stood at 0. In addition, the viability at 48 h, 10 µM in the data set “in vitro [1]” amounted to 97%; in the data set “in vitro [2]”, 84.8%; in “in vitro [3]” it was 88.3%.

At BSA, `C=CC(=O)N1CC(=O)NC2CCCCC21` (stereo not drawn) [PCM-0102717] returned a BSA of 0. The NNMT at NNMT (hNNMT) was found to be 0. This compound showed an NUDT7 on NUDT7 of 0. The OTUB2 at OTUB2 (OTUB2A) amounted to 0. Besides, at PCAF, the PCAF is 0. In addition, the figures for the viability at 48 h, 10 µM in “in vitro [1]”, in “in vitro [2]” and in the data set “in vitro [3]” were 100%, 105% and 112%, respectively.

`C=CC(=O)N1Cc2ccc(S(=O)(=O)N(C)C)cc2C1` [PCM-0102718] returned a BSA at BSA of 0.3. At NNMT (hNNMT), this compound yielded an NNMT of 0. Also, on NUDT7, the NUDT7 is 0. Besides, at OTUB2 (OTUB2A), the OTUB2 is 0. On PCAF, the PCAF is on record as 0. Further, the values for the viability at 48 h, 10 µM in “in vitro [1]”, in “in vitro [2]” and in the data set “in vitro [3]” were 97.4%, 99.7% and 73.6%, respectively.

Turning to `C=CC(=O)NCC1(O)CCCC(C(F)(F)F)C1` (stereo not drawn) [PCM-0102720], the BSA on BSA is 0. On NNMT (hNNMT), this compound yielded an NNMT of 0. On NUDT7, this compound registered an NUDT7 of 0. At OTUB2 (OTUB2A), this compound registered an OTUB2 of 0.08. The compound also had a PCAF at PCAF of 0. Besides, the viability at 48 h, 10 µM was found to be 93.2% in the data set “in vitro [1]”, 107% in the data set “in vitro [2]” and 106% in “in vitro [3]”.

As for `C=CC(=O)N1CCCC(Oc2ncccc2F)C1` (stereo not drawn) [PCM-0102725], the BSA at BSA came to 0. At NNMT (hNNMT), this compound gave an NNMT of 0.13. In addition, the NUDT7 on NUDT7 amounted to 0. In addition, at OTUB2 (OTUB2A), the OTUB2 came out at 0.07. On PCAF, this compound returned a PCAF of 0. Further, the viability at 48 h, 10 µM was 108% in the data set “in vitro [1]”, 109% in the data set “in vitro [2]” and 80.3% in the data set “in vitro [3]”.

In the case of `C=CC(=O)N1CC(OC(=O)NC(C)C)C1` [PCM-0102728], the BSA at BSA is reported as 0. On NNMT (hNNMT), this compound came in with an NNMT of 0. Further, the NUDT7 on NUDT7 is recorded as 0. In addition, the OTUB2 on OTUB2 (OTUB2A) worked out at 0.18. The compound further had a PCAF at PCAF of 0. The viability at 48 h, 10 µM in the data set “in vitro [1]” was 99.7%; in “in vitro [2]” it was 108%; in the data set “in vitro [3]” it was 110%.

Turning to `C=CC(=O)N1CCCn2c(cc3ccccc32)C1` [PCM-0102730], on BSA, the BSA turned out to be 0. The same compound had an NNMT on NNMT (hNNMT) of 0. Besides, on NUDT7, the NUDT7 is reported as 0. Moreover, on OTUB2 (OTUB2A), the OTUB2 is on record as 0.18. On PCAF, this compound yielded a PCAF of 0. For the same compound, the figures for the viability at 48 h, 10 µM in “in vitro [1]”, in “in vitro [2]” and in “in vitro [3]” were 104%, 92.2% and 85%, respectively.

`C=CC(=O)NC1CCN(c2ccccc2C(F)(F)F)C1` (stereo not drawn) [PCM-0102731] registered a BSA at BSA of 0. Further, the NNMT on NNMT (hNNMT) was 0. At NUDT7, this compound registered an NUDT7 of 0. Besides, the OTUB2 on OTUB2 (OTUB2A) came out at 0. The PCAF at PCAF was 0. The viability at 48 h, 10 µM in “in vitro [1]” stood at 100%; in the data set “in vitro [2]”, 104%; in the data set “in vitro [3]”, 69.7%.

As for `C=CC(=O)N1CCc2ccccc21` [PCM-0102732], the BSA on BSA came out at 0. The same compound displayed an NNMT on NNMT (hNNMT) of 0.22. Also, the NUDT7 on NUDT7 was 0. On OTUB2 (OTUB2A), this compound gave an OTUB2 of 0. This compound yielded a PCAF on PCAF of 0. Also, the viability at 48 h, 10 µM came to 93.4% in the data set “in vitro [1]”, 105% in “in vitro [2]” and 72.5% in “in vitro [3]”.

In the case of `CC(C)(C)c1nnc(NC(=O)CCl)s1` [PCM-0102736], the BSA at BSA is 0. At NNMT (hNNMT), the NNMT came to 0.13. This compound registered an NUDT7 at NUDT7 of 0. Moreover, the OTUB2 at OTUB2 (OTUB2A) is listed as 0. Also, the PCAF on PCAF is given as 0. Moreover, the viability at 48 h, 10 µM stood at 80.1% in “in vitro [1]”, 67.5% in “in vitro [2]” and 81.5% in “in vitro [3]”.

Turning to `Cc1cccc(C(=O)NNC(=O)CCl)c1` [PCM-0102737], the BSA on BSA came out at 0. Further, on NNMT (hNNMT), the NNMT was found to be 0. Also, on NUDT7, the NUDT7 is recorded as 0. This compound displayed an OTUB2 on OTUB2 (OTUB2A) of 0.54. Further, the PCAF on PCAF was found to be 0. The figures for the viability at 48 h, 10 µM in “in vitro [1]”, in the data set “in vitro [2]” and in the data set “in vitro [3]” were 82.1%, 80% and 83.7%, respectively.

Regarding `CN(CC(=O)N1CCOCC1)C(=O)CCl` [PCM-0102743], the BSA on BSA worked out at 0. Further, the NNMT on NNMT (hNNMT) stood at 0. Further, on NUDT7, the NUDT7 was found to be 0. At OTUB2 (OTUB2A), this compound gave an OTUB2 of 0. Further, the PCAF on PCAF is given as 0. Also, the viability at 48 h, 10 µM in the data set “in vitro [1]” worked out at 101%; in “in vitro [2]”, 99%; in “in vitro [3]” it was 97.6%.

Take `Cc1ccc(S(N)(=O)=O)cc1NC(=O)CCl` [PCM-0102744]: on BSA, the BSA is 0. Further, on NNMT (hNNMT), the NNMT was 0.17. The compound also gave an NUDT7 at NUDT7 of 0. The OTUB2 at OTUB2 (OTUB2A) came out at 0.1. This compound came in with a PCAF at PCAF of 0. Also, the viability at 48 h, 10 µM came out at 54.4% in “in vitro [1]”, 61.4% in “in vitro [2]” and 19.7% in the data set “in vitro [3]”.

Compound `O=C(CCl)Nc1oncc1-c1ccccc1` [PCM-0102746] registered a BSA on BSA of 0. On NNMT (hNNMT), this compound showed an NNMT of 0.87. At NUDT7, this compound returned an NUDT7 of 0. The same compound returned an OTUB2 at OTUB2 (OTUB2A) of 0.64. Also, the PCAF on PCAF is reported as 0. For the same compound, the viability at 48 h, 10 µM is 72.1% in “in vitro [1]”, 71.8% in “in vitro [2]” and 73.3% in the data set “in vitro [3]”.

For the compound `CN(Cc1cccc(F)c1)C(=O)CCl` [PCM-0102747], the BSA on BSA is reported as 0. Besides, on NNMT (hNNMT), the NNMT is reported as 0. In addition, the NUDT7 at NUDT7 stood at 0. The OTUB2 on OTUB2 (OTUB2A) is reported as 0. Also, the PCAF on PCAF is recorded as 0. Moreover, the values for the viability at 48 h, 10 µM in “in vitro [1]”, in the data set “in vitro [2]” and in “in vitro [3]” were 64.5%, 73.1% and 46.1%, respectively.

In the case of `O=C(CCl)N1CCOCC1` [PCM-0102749], the BSA on BSA came out at 0. This compound yielded an NNMT on NNMT (hNNMT) of 0. The same compound gave an NUDT7 on NUDT7 of 0. This compound showed an OTUB2 at OTUB2 (OTUB2A) of 0. The PCAF at PCAF amounted to 0. The viability at 48 h, 10 µM in “in vitro [1]” stood at 98.7%; in the data set “in vitro [2]” it was 109%; in “in vitro [3]” it was 97.6%.

In turn, `O=C(CCl)N1CCCCCC1` [PCM-0102751] showed a BSA on BSA of 0. Moreover, the NNMT on NNMT (hNNMT) stood at 0. On NUDT7, this compound gave an NUDT7 of 0. This compound showed an OTUB2 on OTUB2 (OTUB2A) of 0. This compound also came in with a PCAF on PCAF of 0. Moreover, the viability at 48 h, 10 µM was 99.5% in “in vitro [1]”, 85.6% in the data set “in vitro [2]” and 73.7% in “in vitro [3]”.

`C=CC(=O)N(C)CC1CCn2ccnc2C1` (stereo not drawn) [PCM-0102752] came in with a BSA on BSA of 0. The same compound displayed an NNMT at NNMT (hNNMT) of 0. Moreover, on NUDT7, the NUDT7 is reported as 0. Moreover, the OTUB2 at OTUB2 (OTUB2A) was 0. The same compound had a PCAF on PCAF of 0. The figures for the viability at 48 h, 10 µM in “in vitro [1]”, in “in vitro [2]” and in “in vitro [3]” were 97.7%, 122% and 88.4%, respectively.
